Numbers after ± are expanded uncertainties.
Tests used:
[1] = molar heat capacity at constant pressure; settings: 101.33 kPa, Small sample (50 mg) DSC
[2] = molar enthalpy of vaporization or sublimation; settings: 341.73 K; Liquid; Static calorimetry
[3] = Molar enthalpy of transition or fusion; settings: Crystal; DSC

## CCCCC(=O)c1ccc(O)cc1 [1-(4-hydroxyphenyl)-1-pentanone]
[1]; 316.94 K, Crystal
  molar heat capacity at constant pressure: 258 ± 11 J/K/mol
[1]; 317.19 K, Crystal
  molar heat capacity at constant pressure: 257.2 ± 11 J/K/mol
[1]; 317.44 K, Crystal
  molar heat capacity at constant pressure: 257.6 ± 11 J/K/mol
[1]; 317.69 K, Crystal
  molar heat capacity at constant pressure: 257.8 ± 11 J/K/mol
[1]; 317.94 K, Crystal
  molar heat capacity at constant pressure: 257.4 ± 11 J/K/mol
[1]; 318.19 K, Crystal
  molar heat capacity at constant pressure: 257 ± 11 J/K/mol
[1]; 318.44 K, Crystal
  molar heat capacity at constant pressure: 258.3 ± 11 J/K/mol
[1]; 318.69 K, Crystal
  molar heat capacity at constant pressure: 258.9 ± 11 J/K/mol
[1]; 318.94 K, Crystal
  molar heat capacity at constant pressure: 259.1 ± 11 J/K/mol
[1]; 319.19 K, Crystal
  molar heat capacity at constant pressure: 260.1 ± 11 J/K/mol
[1]; 319.44 K, Crystal
  molar heat capacity at constant pressure: 259.4 ± 12 J/K/mol
[1]; 319.69 K, Crystal
  molar heat capacity at constant pressure: 260.1 ± 12 J/K/mol
[1]; 319.94 K, Crystal
  molar heat capacity at constant pressure: 259.7 ± 12 J/K/mol
[1]; 320.19 K, Crystal
  molar heat capacity at constant pressure: 259.7 ± 12 J/K/mol
[1]; 320.44 K, Crystal
  molar heat capacity at constant pressure: 260.3 ± 12 J/K/mol
[1]; 320.69 K, Crystal
  molar heat capacity at constant pressure: 260.6 ± 12 J/K/mol
[1]; 320.94 K, Crystal
  molar heat capacity at constant pressure: 261.2 ± 12 J/K/mol
[1]; 321.19 K, Crystal
  molar heat capacity at constant pressure: 261.4 ± 12 J/K/mol
[1]; 321.44 K, Crystal
  molar heat capacity at constant pressure: 260.7 ± 12 J/K/mol
[1]; 321.69 K, Crystal
  molar heat capacity at constant pressure: 260.9 ± 12 J/K/mol
[1]; 321.94 K, Crystal
  molar heat capacity at constant pressure: 260.9 ± 12 J/K/mol
[1]; 322.19 K, Crystal
  molar heat capacity at constant pressure: 261.4 ± 12 J/K/mol
[1]; 322.44 K, Crystal
  molar heat capacity at constant pressure: 262.1 ± 13 J/K/mol
[1]; 322.69 K, Crystal
  molar heat capacity at constant pressure: 262.7 ± 13 J/K/mol
[1]; 322.94 K, Crystal
  molar heat capacity at constant pressure: 262.6 ± 13 J/K/mol
[1]; 323.19 K, Crystal
  molar heat capacity at constant pressure: 263.3 ± 12 J/K/mol
[1]; 323.44 K, Crystal
  molar heat capacity at constant pressure: 263.3 ± 12 J/K/mol
[1]; 323.69 K, Crystal
  molar heat capacity at constant pressure: 262.8 ± 12 J/K/mol
[1]; 323.94 K, Crystal
  molar heat capacity at constant pressure: 263 ± 12 J/K/mol
[1]; 324.19 K, Crystal
  molar heat capacity at constant pressure: 264.1 ± 13 J/K/mol
[1]; 324.44 K, Crystal
  molar heat capacity at constant pressure: 264.2 ± 13 J/K/mol
[1]; 324.69 K, Crystal
  molar heat capacity at constant pressure: 264.3 ± 12 J/K/mol
[1]; 324.94 K, Crystal
  molar heat capacity at constant pressure: 265.1 ± 13 J/K/mol
[1]; 325.19 K, Crystal
  molar heat capacity at constant pressure: 265.2 ± 12 J/K/mol
[1]; 325.44 K, Crystal
  molar heat capacity at constant pressure: 265.1 ± 12 J/K/mol
[1]; 325.69 K, Crystal
  molar heat capacity at constant pressure: 265.8 ± 13 J/K/mol
[1]; 325.94 K, Crystal
  molar heat capacity at constant pressure: 266.1 ± 13 J/K/mol
[1]; 326.19 K, Crystal
  molar heat capacity at constant pressure: 266.1 ± 13 J/K/mol
[1]; 326.44 K, Crystal
  molar heat capacity at constant pressure: 267.6 ± 13 J/K/mol
[1]; 326.69 K, Crystal
  molar heat capacity at constant pressure: 267.8 ± 14 J/K/mol
[1]; 326.94 K, Crystal
  molar heat capacity at constant pressure: 267.5 ± 14 J/K/mol
[1]; 327.19 K, Crystal
  molar heat capacity at constant pressure: 267.3 ± 13 J/K/mol
[1]; 327.44 K, Crystal
  molar heat capacity at constant pressure: 267.7 ± 13 J/K/mol
[1]; 327.69 K, Crystal
  molar heat capacity at constant pressure: 268.3 ± 14 J/K/mol
[1]; 327.94 K, Crystal
  molar heat capacity at constant pressure: 268.4 ± 14 J/K/mol
[1]; 328.19 K, Crystal
  molar heat capacity at constant pressure: 268.9 ± 14 J/K/mol
[1]; 328.44 K, Crystal
  molar heat capacity at constant pressure: 269.8 ± 14 J/K/mol
[1]; 328.69 K, Crystal
  molar heat capacity at constant pressure: 269.8 ± 14 J/K/mol
[1]; 328.94 K, Crystal
  molar heat capacity at constant pressure: 270.3 ± 14 J/K/mol
[1]; 329.19 K, Crystal
  molar heat capacity at constant pressure: 270.3 ± 14 J/K/mol
[1]; 329.44 K, Crystal
  molar heat capacity at constant pressure: 272 ± 14 J/K/mol
[1]; 329.69 K, Crystal
  molar heat capacity at constant pressure: 273.2 ± 14 J/K/mol
[1]; 329.94 K, Crystal
  molar heat capacity at constant pressure: 272.8 ± 14 J/K/mol
[1]; 330.19 K, Crystal
  molar heat capacity at constant pressure: 273.6 ± 15 J/K/mol
[1]; 330.44 K, Crystal
  molar heat capacity at constant pressure: 273.2 ± 14 J/K/mol
[1]; 330.69 K, Crystal
  molar heat capacity at constant pressure: 275.7 ± 14 J/K/mol
[1]; 330.94 K, Crystal
  molar heat capacity at constant pressure: 275.7 ± 14 J/K/mol
[1]; 331.19 K, Crystal
  molar heat capacity at constant pressure: 277.6 ± 14 J/K/mol
[1]; 331.44 K, Crystal
  molar heat capacity at constant pressure: 277.9 ± 15 J/K/mol
[1]; 331.69 K, Crystal
  molar heat capacity at constant pressure: 278.6 ± 15 J/K/mol
[1]; 331.94 K, Crystal
  molar heat capacity at constant pressure: 280.4 ± 15 J/K/mol
[1]; 332.19 K, Crystal
  molar heat capacity at constant pressure: 281.8 ± 16 J/K/mol
[1]; 332.44 K, Crystal
  molar heat capacity at constant pressure: 283.8 ± 16 J/K/mol
[1]; 332.69 K, Crystal
  molar heat capacity at constant pressure: 285.5 ± 16 J/K/mol
[1]; 332.94 K, Crystal
  molar heat capacity at constant pressure: 287.6 ± 16 J/K/mol
[1]; 333.19 K, Crystal
  molar heat capacity at constant pressure: 291.7 ± 17 J/K/mol
[1]; 333.44 K, Crystal
  molar heat capacity at constant pressure: 295.7 ± 18 J/K/mol
[1]; 340.69 K, Liquid
  molar heat capacity at constant pressure: 393.2 ± 31 J/K/mol
[1]; 340.94 K, Liquid
  molar heat capacity at constant pressure: 373.9 ± 15 J/K/mol
[1]; 341.19 K, Liquid
  molar heat capacity at constant pressure: 368.2 ± 16 J/K/mol
[1]; 341.44 K, Liquid
  molar heat capacity at constant pressure: 365.9 ± 15 J/K/mol
[1]; 341.69 K, Liquid
  molar heat capacity at constant pressure: 367 ± 15 J/K/mol
[1]; 341.94 K, Liquid
  molar heat capacity at constant pressure: 367.1 ± 16 J/K/mol
[1]; 342.19 K, Liquid
  molar heat capacity at constant pressure: 366.1 ± 15 J/K/mol
[1]; 342.44 K, Liquid
  molar heat capacity at constant pressure: 366.4 ± 16 J/K/mol
[1]; 342.69 K, Liquid
  molar heat capacity at constant pressure: 368.5 ± 16 J/K/mol
[1]; 342.94 K, Liquid
  molar heat capacity at constant pressure: 384.8 ± 17 J/K/mol
[1]; 343.19 K, Liquid
  molar heat capacity at constant pressure: 386 ± 18 J/K/mol
[1]; 343.44 K, Liquid
  molar heat capacity at constant pressure: 368.7 ± 16 J/K/mol
[1]; 343.69 K, Liquid
  molar heat capacity at constant pressure: 364.2 ± 20 J/K/mol
[1]; 343.94 K, Liquid
  molar heat capacity at constant pressure: 364.3 ± 21 J/K/mol
[1]; 344.19 K, Liquid
  molar heat capacity at constant pressure: 364.4 ± 20 J/K/mol
[1]; 344.44 K, Liquid
  molar heat capacity at constant pressure: 365 ± 20 J/K/mol
[1]; 344.69 K, Liquid
  molar heat capacity at constant pressure: 366.8 ± 18 J/K/mol
[1]; 344.94 K, Liquid
  molar heat capacity at constant pressure: 368.6 ± 18 J/K/mol
[1]; 345.19 K, Liquid
  molar heat capacity at constant pressure: 369.5 ± 18 J/K/mol
[1]; 345.44 K, Liquid
  molar heat capacity at constant pressure: 369.4 ± 17 J/K/mol
[1]; 345.69 K, Liquid
  molar heat capacity at constant pressure: 370.7 ± 16 J/K/mol
[1]; 345.94 K, Liquid
  molar heat capacity at constant pressure: 371 ± 16 J/K/mol
[1]; 346.19 K, Liquid
  molar heat capacity at constant pressure: 371 ± 16 J/K/mol
[1]; 346.44 K, Liquid
  molar heat capacity at constant pressure: 370.7 ± 16 J/K/mol
[1]; 346.69 K, Liquid
  molar heat capacity at constant pressure: 371 ± 16 J/K/mol
[1]; 346.94 K, Liquid
  molar heat capacity at constant pressure: 372.4 ± 16 J/K/mol
[1]; 347.19 K, Liquid
  molar heat capacity at constant pressure: 373.1 ± 16 J/K/mol
[1]; 347.44 K, Liquid
  molar heat capacity at constant pressure: 372.8 ± 16 J/K/mol
[1]; 347.69 K, Liquid
  molar heat capacity at constant pressure: 373.7 ± 17 J/K/mol
[1]; 347.94 K, Liquid
  molar heat capacity at constant pressure: 374 ± 17 J/K/mol
[1]; 348.19 K, Liquid
  molar heat capacity at constant pressure: 373.1 ± 17 J/K/mol
[1]; 348.44 K, Liquid
  molar heat capacity at constant pressure: 372.9 ± 17 J/K/mol
[1]; 348.69 K, Liquid
  molar heat capacity at constant pressure: 371.8 ± 17 J/K/mol
[1]; 348.94 K, Liquid
  molar heat capacity at constant pressure: 372 ± 17 J/K/mol
[1]; 349.19 K, Liquid
  molar heat capacity at constant pressure: 373 ± 17 J/K/mol
[1]; 349.44 K, Liquid
  molar heat capacity at constant pressure: 374.4 ± 17 J/K/mol
[1]; 349.69 K, Liquid
  molar heat capacity at constant pressure: 374.8 ± 18 J/K/mol
[1]; 349.94 K, Liquid
  molar heat capacity at constant pressure: 374 ± 18 J/K/mol
[1]; 350.19 K, Liquid
  molar heat capacity at constant pressure: 374.1 ± 18 J/K/mol
[1]; 350.44 K, Liquid
  molar heat capacity at constant pressure: 375.3 ± 17 J/K/mol
[1]; 350.69 K, Liquid
  molar heat capacity at constant pressure: 374.9 ± 18 J/K/mol
[1]; 350.94 K, Liquid
  molar heat capacity at constant pressure: 373.9 ± 18 J/K/mol
[1]; 351.19 K, Liquid
  molar heat capacity at constant pressure: 375 ± 17 J/K/mol
[1]; 351.44 K, Liquid
  molar heat capacity at constant pressure: 376.6 ± 18 J/K/mol
[1]; 351.68 K, Liquid
  molar heat capacity at constant pressure: 375.6 ± 18 J/K/mol
[1]; 351.93 K, Liquid
  molar heat capacity at constant pressure: 376.3 ± 18 J/K/mol
[2]
  molar enthalpy: 22.96 ± 0.174 kcal/mol
[3]
  Molar enthalpy of transition or fusion: 6.15 ± 0.141 kcal/mol
